“And” between values parts separate entries of the source, which are not always exact repeats. Identical values can stand only once.

The term inhibition denotes the percentage by which the read-out fell short of the control. The ED50 is the dose that gives a 50% effect, or the effect in half of the subjects. The IC50 is the point on the concentration scale where inhibition reaches its midpoint.

Experiment [1] has as its system tetradecanoylphorbol acetate (TPA) induced ear edema. Put plainly: tetradecanoylphorbol acetate (TPA) induced ear edema in mice. The class given is in vivo, mouse (Webster). The following applies: for Percent Inhibition TPA Ear Edema: 30 min after TPA, measured 4 hrs after TPA. On the set-up: activity in TPA ear edema test: dose or concentration left out as unconfirmed. Here is the method:
Representative compounds of this invention were evaluated in an in vivo standard pharmacological test procedure that measured the effect of the representative compounds on dermal inflammation, as measured by the prevention of tetradecanoylphorbol acetate (TPA) induced car edema in Webster mice. This test procedure was carried out as follows.
Mice were placed into plastic boxes in groups of six. Eight groups of mice received TPA topically on the right ear. TPA was dissolved in acetone at a concentration of 100 ug/ml. TPA was applied to the right ear by the means of an automatic pipette. Volumes of 10 ul were applied to the inner and outer surfaces of the ear. Each mouse received 2 ug/ear TPA. The left ear (control) received acetone delivered in the same manner. The compounds to be evaluated were given orally 30 min after treatment with TPA.
Measurements were taken with Oditest calipers, 0-10 mm with 0.01 graduations. The right and left cars were measured 4 hrs after TPA-induced inflammation.
The difference between right and left car thickness was calculated and the significance was determined by a one way analysis of variance with Dunnet's comparisons to control (P=0.05). Drug effects are expressed as a percent change from control values according to the following formula. [formula]

The next experiment concerns the target T1, 5-lipoxygenase (Mus musculus, UniProt P48999).
T1 construct: Resident peritoneal macrophages were collected from female Swiss Webster mice; endogenous in cells; host or cells: resident peritoneal macrophages of female Swiss Webster mice
T1 sequence (P48999 1-674): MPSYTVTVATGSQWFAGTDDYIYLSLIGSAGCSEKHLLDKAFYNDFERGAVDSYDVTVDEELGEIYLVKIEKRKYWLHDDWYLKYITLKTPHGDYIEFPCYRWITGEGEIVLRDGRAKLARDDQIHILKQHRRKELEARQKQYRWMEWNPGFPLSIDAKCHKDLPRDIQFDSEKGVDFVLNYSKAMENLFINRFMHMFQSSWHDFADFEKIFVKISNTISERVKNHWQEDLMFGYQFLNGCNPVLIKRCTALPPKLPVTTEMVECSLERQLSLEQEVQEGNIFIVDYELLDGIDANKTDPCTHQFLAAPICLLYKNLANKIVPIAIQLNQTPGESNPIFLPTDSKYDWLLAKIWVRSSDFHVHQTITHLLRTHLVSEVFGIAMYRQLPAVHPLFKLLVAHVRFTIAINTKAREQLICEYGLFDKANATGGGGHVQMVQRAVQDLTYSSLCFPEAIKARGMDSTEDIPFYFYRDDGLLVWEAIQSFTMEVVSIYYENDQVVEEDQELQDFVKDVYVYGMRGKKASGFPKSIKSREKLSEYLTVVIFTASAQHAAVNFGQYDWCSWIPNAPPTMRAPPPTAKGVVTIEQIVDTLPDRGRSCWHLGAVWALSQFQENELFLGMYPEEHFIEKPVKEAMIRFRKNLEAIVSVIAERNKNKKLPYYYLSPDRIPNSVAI
Put plainly: 5-lipoxygenase inhibition (LTC4 production) in resident murine peritoneal macrophages. Type of experiment: cell-based, mouse (Swiss Webster). Here is the method: (§1) The ability of the compounds of the invention to act as inhibitors of the enzymes 5-lipoxygenase and cyclooxygenase was evaluated in the resident murine peritoneal macrophage standard pharmacological test procedure. This test procedure was carried out as follows.
(§2) Resident peritoneal macrophages were collected from female Swiss Webster mice (49 days old, 20-25 gms, Buckshire) by lavaging with 7-8 ml Hanks Balanced Salt Solution (HBSS) without Ca^++ and Mg^++ (GIBCO). The lavage fluid from several mice was pooled and centrifuged at 4° C. for 10 minutes at 400 xg. The cell pellet was resuspended in Medium 199 (GIBCO) with HEPES buffer containing 100 μg/ml gentamicin. Two ml of the cell suspension (4×10^6 cells) were then plated on 35 mm culture dishes (Nunc).
A macrophage monolayer was established after a 1-1.5 hour incubation of the cells at 37° C. in an atmosphere of […] and 5% CO2. The monolayers were washed 2× with 2 ml HBDSS, containing Ca^++ and Mg^++ after which 2 ml Medium 199 supplemented with 10% freshly thawed heat-inactivated fetal bovine serum and 100 μg/ml gentamicin was added for an overnight incubation.
Residual serum and cellular debris were removed from the monolayers by washing 3× with 2 ml HBSS containing Ca^++ and Mg^++. Macrophages were preincubated for 5 minutes with 1 ml serum-free M199 containing 10 μl dimethyl sulfoxide (DMSO) vehicle or test compound prior to cell activation with zymosan ([…]) or arachidonic acid (AA) (2 μM). After 2 hours, the supernatants were removed and either assayed for LTC4 and PGE2 by radioimmunoassay (RIA) directly or stored at -20° C. In all cases, results are expressed as ng metabolite/4×10^6 cells.
Calculations: The raw data were converted to ng metabolite/4-10^6 cells using a standard curve. Results were then expressed as percent inhibition of zymosan induced, leukotriene or prostaglandin synthesis (control) using the following equation: [formula] REFERENCE COMPOUNDS: The compounds used are listed below.

For the next experiment, the system named is cyclooxygenase. Put plainly: cyclooxygenase inhibition (PGE2 production) in resident murine peritoneal macrophages. Type of experiment: cell-based, mouse (Swiss Webster). The following applies: dose 0.5 μM; mouse macrophages, zymosan induced. Here is the method:
as §1, §2
A macrophage monolayer was established after a 1-1.5 hour incubation of the cells at 37° C. in an atmosphere of […] and 5% CO2. […]
Residual serum and cellular debris were removed from the monolayers by washing 3× with 2 ml HBSS containing Ca^++ and Mg^++. […] In all cases, results are expressed as ng metabolite/4×10^6 cells.
Calculations: The raw data were converted to ng metabolite/4-10^6 cells using a standard curve. Results were then expressed as percent inhibition of zymosan induced, leukotriene or prostaglandin synthesis (control) using the following equation: [formula] […]

[2] abbreviates: mouse macrophages, zymosan induced.
[3] abbreviates: dose 0.1 μM, mouse macrophages, zymosan induced.

For the compound `O=C(CC[C@@H]1CC[C@H]2CCCC[C@@H]2C1)C1=C(O)COC1=O` (relative stereo) [Example 1, 3-[3-[(2α,4aα,8aβ)-Decahydro-naphthalene-2-yl]-propionyl]-4-hydroxy-2-(5H) -furanone], the figures for the “Percent Inhibition TPA Ear Edema” value in experiment [1] (80 mg/kg p.o.) and in experiment [1] (160 mg/kg p.o.) were 19% and 49%, respectively. The same compound showed an inhibition at 0.5 µM on 5-lipoxygenase (setting [2]) of 59%. The “PGE2 % Inhibition” value in the experiment with cyclooxygenase worked out at 54%.

With `O=C(CC[C@@H]1CC[C@H]2CCCC[C@@H]2C1)C1=C(O)CSC1=O` (relative stereo) [Example 2, 3-[3-[(2α,4aα,8aβ)-Decahydro-naphthalene-2-yl]-propionyl]-4-hydroxy-2-(5H)thiophenone], in experiment [1] (80 mg/kg p.o.), the “Percent Inhibition TPA Ear Edema” value is 21%. The “Percent Inhibition TPA Ear Edema” value in experiment [1] (160 mg/kg p.o.) is reported as 66%. Further, on 5-lipoxygenase (setting [3]), the “LTC4 % Inhibition” value came out at 37% and at 0.1 µM the inhibition was 43%. At 5-lipoxygenase (setting [2]), this compound registered an inhibition at 0.5 µM of 92%. Moreover, the “PGE2 % Inhibition” value with cyclooxygenase was 80% and 85%.

In experiment [1] (Mus musculus, 4 h, oral, TPA-induced ear edema, mice), `NC1=NN(c2cccc(C(F)(F)F)c2)CC1` [BW 755c, reference compound] yielded a median effective dose (ED50) of 88 mg/kg.

Regarding `CCCCCC#CCC#CCC#CCC#CCCCC(=O)O` [ETYA, reference compound], on 5-lipoxygenase, the concentration for half-maximal inhibition (IC50) turned out to be 440 nM.

As to `COc1ccc2c(c1)c(CC(=O)O)c(C)n2C(=O)c1ccc(Cl)cc1` [Indomethacin, reference compound], the “activity in TPA ear edema test” value in experiment [1] is “inactive”.

These data come from patent US5428058A, “Phospholipase A2 inhibitors” (American Home Products Corporation, priority 1994, dated 1995).
